Measurements taken from PubChem BioAssay (NCI).
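Dose response: 5 concentrations. Exposure: 48 h. Format: 96-well plates. Endpoint: linear interpolation; highest concentration if not reached. Abbreviation: GI50, concentration required for 50% inhibition of growth. TGI denotes the concentration required for complete inhibition of growth.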

Tests used:
Assay in all cases: NCI-60 cell line screen, 48 h
UACC-257 melanoma = tested on: UACC-257 melanoma
U251 CNS = tested on: U251 CNS
SW-620 colon = tested on: SW-620 colon
KM12 colon = tested on: KM12 colon
LOX IMVI melanoma = tested on: LOX IMVI melanoma
DLD-1 colon = tested on: DLD-1 colon
A549 NSCLC = tested on: A549 NSCLC
OVCAR-8 ovarian = tested on: OVCAR-8 ovarian
SN12C renal = tested on: SN12C renal
SNB-19 CNS = tested on: SNB-19 CNS
NCI-H23 lung = tested on: NCI-H23 lung
HCT-15 colon = tested on: HCT-15 colon
A498 renal = tested on: A498 renal
SK-MEL-28 melanoma = tested on: SK-MEL-28 melanoma
EKVX NSCLC = tested on: EKVX NSCLC
HOP-62 NSCLC = tested on: HOP-62 NSCLC
RPMI-8226 leukemia = tested on: RPMI-8226 leukemia
DMS 273 small cell lung = tested on: DMS 273 small cell lung
SNB-75 CNS = tested on: SNB-75 CNS
SF-539 CNS = tested on: SF-539 CNS
OVCAR-5 ovarian = tested on: OVCAR-5 ovarian
NCI-H226 lung = tested on: NCI-H226 lung
HOP-18 NSCLC = tested on: HOP-18 NSCLC
TK-10 renal = tested on: TK-10 renal
HCC-2998 colon = tested on: HCC-2998 colon
OVCAR-3 ovarian = tested on: OVCAR-3 ovarian
SK-MEL-2 melanoma = tested on: SK-MEL-2 melanoma
K-562 leukemia = tested on: K-562 leukemia
HT29 colon = tested on: HT29 colon
MALME-3M melanoma = tested on: MALME-3M melanoma
SF-268 CNS = tested on: SF-268 CNS
ACHN renal = tested on: ACHN renal
XF 498 CNS = tested on: XF 498 CNS
CCRF-CEM leukemia = tested on: CCRF-CEM leukemia
KM20L2 colon = tested on: KM20L2 colon
786-0 renal = tested on: 786-0 renal
UO-31 renal = tested on: UO-31 renal
SK-MEL-5 melanoma = tested on: SK-MEL-5 melanoma
NCI-H460 lung = tested on: NCI-H460 lung
SF-295 CNS = tested on: SF-295 CNS
IGROV1 ovarian = tested on: IGROV1 ovarian
SK-OV-3 ovarian = tested on: SK-OV-3 ovarian
UACC-62 melanoma = tested on: UACC-62 melanoma
HL-60(TB) leukemia = tested on: HL-60(TB) leukemia
OVCAR-4 ovarian = tested on: OVCAR-4 ovarian
COLO 205 colon = tested on: COLO 205 colon
CAKI-1 renal = tested on: CAKI-1 renal
RXF 393 renal = tested on: RXF 393 renal
M19-MEL melanoma = tested on: M19-MEL melanoma

## O=C(c1ccc(Cl)cc1)C1OC12C(=O)Nc1c(Cl)cc(Cl)cc12 (stereo not drawn)
UACC-257 melanoma
  TGI: > 100 µM
U251 CNS
  TGI: > 100 µM
SW-620 colon
  TGI: > 100 µM
KM12 colon
  TGI: > 100 µM
LOX IMVI melanoma
  TGI: > 100 µM
DLD-1 colon
  TGI: > 100 µM
A549 NSCLC
  TGI: > 100 µM
OVCAR-8 ovarian
  TGI: > 100 µM
SN12C renal
  TGI: > 100 µM
SNB-19 CNS
  TGI: > 100 µM
NCI-H23 lung
  TGI: > 100 µM
HCT-15 colon
  TGI: > 100 µM
A498 renal
  TGI: > 100 µM
SK-MEL-28 melanoma
  TGI: > 100 µM
EKVX NSCLC
  TGI: 65.2 µM
HOP-62 NSCLC
  TGI: > 100 µM
RPMI-8226 leukemia
  TGI: 45.4 µM
DMS 273 small cell lung
  TGI: > 100 µM
SNB-75 CNS
  TGI: 83.4 µM
SF-539 CNS
  TGI: > 100 µM
OVCAR-5 ovarian
  TGI: > 100 µM
NCI-H226 lung
  TGI: > 100 µM
HOP-18 NSCLC
  TGI: > 100 µM
TK-10 renal
  TGI: > 100 µM
HCC-2998 colon
  TGI: > 100 µM
OVCAR-3 ovarian
  TGI: 77.8 µM
SK-MEL-2 melanoma
  TGI: > 100 µM
K-562 leukemia
  TGI: > 100 µM
HT29 colon
  TGI: > 100 µM
MALME-3M melanoma
  TGI: > 100 µM
SF-268 CNS
  TGI: > 100 µM
ACHN renal
  TGI: > 100 µM
XF 498 CNS
  TGI: 87.8 µM
CCRF-CEM leukemia
  TGI: 66.3 µM
KM20L2 colon
  TGI: > 100 µM
786-0 renal
  TGI: > 100 µM
UO-31 renal
  TGI: > 100 µM
SK-MEL-5 melanoma
  TGI: > 100 µM
NCI-H460 lung
  TGI: > 100 µM
SF-295 CNS
  TGI: > 100 µM

## CC(=O)[CH-]C(=O)c1ccccc1.[C-]#[O+].[C-]#[O+].[Ir]
UACC-257 melanoma
  GI50: > 100 µM
  TGI: > 100 µM
U251 CNS
  GI50: > 100 µM
  TGI: > 100 µM
SW-620 colon
  GI50: > 100 µM
  TGI: > 100 µM
KM12 colon
  GI50: > 10 µM
  TGI: > 10 µM
LOX IMVI melanoma
  GI50: > 100 µM
  TGI: > 100 µM
IGROV1 ovarian
  GI50: > 100 µM
  TGI: > 100 µM
DLD-1 colon
  GI50: > 100 µM
  TGI: > 100 µM
SK-OV-3 ovarian
  GI50: > 100 µM
  TGI: > 100 µM
A549 NSCLC
  GI50: > 100 µM
  TGI: > 100 µM
OVCAR-8 ovarian
  GI50: > 100 µM
  TGI: > 100 µM
SN12C renal
  GI50: > 100 µM
  TGI: > 100 µM
UACC-62 melanoma
  GI50: > 100 µM
  TGI: > 100 µM
SNB-19 CNS
  GI50: > 100 µM
  TGI: > 100 µM
NCI-H23 lung
  GI50: > 100 µM
  TGI: > 100 µM
HCT-15 colon
  GI50: > 100 µM
  TGI: > 100 µM
SK-MEL-28 melanoma
  GI50: > 100 µM
  TGI: > 100 µM
EKVX NSCLC
  GI50: > 100 µM
  TGI: > 100 µM
RPMI-8226 leukemia
  GI50: > 10 µM
  TGI: > 10 µM
SNB-75 CNS
  GI50: > 100 µM
  TGI: > 100 µM
SF-539 CNS
  GI50: > 100 µM
  TGI: > 100 µM
OVCAR-5 ovarian
  GI50: > 100 µM
  TGI: > 100 µM
NCI-H226 lung
  GI50: > 100 µM
  TGI: > 100 µM
HL-60(TB) leukemia
  GI50: > 100 µM
  TGI: > 100 µM
HOP-18 NSCLC
  GI50: > 100 µM
  TGI: > 100 µM
TK-10 renal
  GI50: > 100 µM
  TGI: > 100 µM
HCC-2998 colon
  GI50: > 100 µM
  TGI: > 100 µM
SK-MEL-2 melanoma
  GI50: > 100 µM
  TGI: > 100 µM
OVCAR-4 ovarian
  GI50: > 100 µM
  TGI: > 100 µM
HT29 colon
  GI50: > 10 µM
  TGI: > 10 µM
MALME-3M melanoma
  GI50: > 100 µM
  TGI: > 100 µM
COLO 205 colon
  GI50: > 100 µM
  TGI: > 100 µM
CAKI-1 renal
  GI50: > 100 µM
  TGI: > 100 µM
RXF 393 renal
  GI50: > 100 µM
  TGI: > 100 µM
M19-MEL melanoma
  GI50: > 100 µM
  TGI: > 100 µM
786-0 renal
  GI50: > 100 µM
  TGI: > 100 µM
UO-31 renal
  GI50: > 100 µM
  TGI: > 100 µM
SK-MEL-5 melanoma
  GI50: > 100 µM
  TGI: > 100 µM
NCI-H460 lung
  GI50: > 10 µM
  TGI: > 10 µM
SF-295 CNS
  GI50: > 100 µM
  TGI: > 100 µM
